Experiments:
[1] = tested on: dox-treated KP^sh cells; experiment: 5hmC flow cytometry in KP^sh cells; type: cell-based, mouse; conditions: KP^sh-2 cells, 4 mM DM-αKG for 72 h
Method: (§1) BrdU, Annexin-V, 5hmC Flow Cytometry Assays. BrdU (BD Pharmigen) and Annexin V (BDPharmigen) analysis was performed in triplicate in cells plated in 6-well dishes under indicated conditions via manufacturers' protocols. 5hmC flow was performed in triplicate in cells plated in 6-well dishes. Briefly, adherent cells were washed with PBS, collected by trypsinization, and fixed on ice for 15 minutes in fixation/permeabilization solution (BD Cat #554714). The cells were then washed with 1× perm/wash buffer (BD Cat #554714) supplemented with 0.1% Triton X, treated with 1× perm/wash buffer supplemented with 0.5% Triton X and 0.5% Nonidet P-40 substitute for 30 minutes. Then, the cells were washed with 1× perm/wash buffer supplemented with 0.1% Triton X, incubated overnight at 4° C. with rabbit anti-5hmC antibody diluted 1:100 in 1× perm/wash buffer supplemented with 0.1% Triton X, washed with 1× perm/wash buffer supplemented with 0.1% Triton X, and incubated for 1 hour at room temperature with goat anti-rabbit Alexa Fluor 700 diluted 1:200 in 1× perm/wash buffer supplemented with 0.1% Triton X. The cells were then washed with 1× perm/wash buffer supplemented with 0.1% Triton X, resuspended in 1× perm/wash buffer, and analyzed.

[2] = tested on: KP^sh cells; experiment: RNA-Seq / GSEA / qRT-PCR gene expression in KP^sh cells; type: cell-based, mouse
Method: qRT-PCR. Total RNA was extracted in triplicate wells from indicated conditions using the RNAeasy Mini Kit (Qiagen) according to manufacturer protocols. cDNA was synthesized from 1 μg of RNA (AffinityScript QPCR cDNA synthesis kit, Agilent) and QPCR amplification performed with SYBR green (Perfecta SYBR green fast mix, QuantaBio) using the following primer pairs on a ViiA 7 Real-Time PCR System (Life technologies). 36B4 was utilized as endogenous control.
RNA-Seq. Total RNA was isolated from duplicate wells of indicated conditions. RNA integrity and concentration were assessed using a BioAnalyzer (Agilent). RNA sequencing libraries were generated using Illumina mRNA TruSeq kit with dual index barcoding. […] Approximately 8 million paired-end 76 bp reads were sequenced per replicate on a HiSeq 2500 instrument on RAPID mode. […] Genome wide transcript counting was performed by HTSeq or featureCounts to generate FPKM matrix. […] Differential expression analysis was performed with DESeq2 package in R^50. Genes with a real adjusted p value were used for downstream analyses.
Gene Set Enrichment Analysis. Gene set enrichment analysis (GSEA) was performed using ranked lists. […] GSEAPreranked version 4 was used with default parameters and data were exported and graphed in GraphPad Prism version 7.

[3] = tested on: KP^sh cells; experiment: ATAC-Seq chromatin accessibility in KP^sh cells; type: cell-based, mouse; conditions: KP^sh cells with dox, cell-permeable αKG
Method: Epigenomic Analysis. 1×10^6 KP^sh cells were washed with PBS and plated on and off dox 8 days (−D8) before collecting cells for ATAC-Seq analysis. Cells maintained on dox and off dox were passaged every 48 h. Three days prior to harvest, dimethyl-α-ketoglutarate (DM-αKG) was added to cells grown on dox, while DMSO was added to cells maintained on dox and cells maintained off dox. All cell groups (On dox, DMSO; On dox, DM-αKG; Off dox, DMSO) were split into 6-well plates in duplicate in fresh media containing dox, DM-αKG, and DMSO as indicated two days prior to harvest. This medium was refreshed 24 h before collection. […] Barcoded libraries were pooled (2-4 samples/lane) and run on an Illumina HiSeq 2500 sequencer using 50 bp paired-end reads.
For data analysis, quality and adapter filtering was applied to raw reads using ‘trim_galore’ before aligning to mouse assembly mm9 with bowtie2 using the default parameters. The Picard tool MarkDuplicates was used to remove reads with the same start site and orientation. The BEDTools suite was used to create read density profiles. Enriched regions were discovered using MACS2 and scored against matched input libraries (fold change >2 and FDR-adjusted p-value <0.1). […] ChIP-seq data were processed in the same way as ATAC-seq data, except read density profiles for ChIP included a read extension equivalent to the average library fragment size. […]

[4] = tested on: p53 mutant human PDAC cells; experiment: 5hmC flow cytometry in human PDAC cells; type: cell-based; conditions: 8988 and Panel cells, 4 mM DM-αKG for 72 h
Method: as §1

[5] = tested on: KP^sh cells; experiment: Cell cycle arrest and senescence (BrdU, SA-β-gal) in KP^sh PDAC cells; type: cell-based, mouse; conditions: KP^sh cells on dox; 3 μM etoposide or 25 nM trametinib, 48 or 96 hours
Method: Cell Lines and Cell Culture Treatments. KP^sh-1-3 cells were derived from PDAC that developed in three separate Pdx1-Cre; LSL-KrasG12D; Col1a1-TRE-shp53-shRenilla; Rosa26-CAGs-LSL-rtTA-IRES-mKate2 mice generated by blastocyst injection and maintained on doxycycline (dox) chow (625 mg/kg, Harlan Laboratories) 5 days from birth until sacrifice. […] Guide strands for Col1a1 targeted tandem shRNAs were: p53, [sequence] (SEQ ID NO: 1) and Renilla, [sequence] (SEQ ID NO: 2). […] Tumors were diced with scissors and resulting pieces sequentially digested with 1 mg/ml collagenase V (Sigma) diluted in Hanks Buffered saline solution followed by 0.25% Trypsin. Digested suspensions were washed with complete DMEM (DMEM, 10% FBS (GIBCO), 1× Penicillin/Streptomycin) and propagated in complete DMEM on collagen-coated plates (PurCol, Advanced Biomatrix, 0.1 mg/ml). KP^sh cells were grown in complete DMEM supplemented with 1 μg/ml doxycycline.
Senescence Associated Beta-Galactosidase (SA-β-Gal) Assay. SA-β-gal activity was detected as described previously. […] At least 200 cells were analyzed from triplicate wells at all conditions. […]

[6] = tested on: KP^sh cells; experiment: αKG/succinate ratio in KP^sh PDAC cells (metabolite profiling); type: cell-based, mouse; conditions: KP^sh cells on dox; 3 μM etoposide or 25 nM trametinib, 48 or 96 hours
Method: Cell Lines and Cell Culture Treatments. KP^sh-1-3 cells were derived from PDAC that developed in three separate Pdx1-Cre; LSL-KrasG12D; Col1a1-TRE-shp53-shRenilla; Rosa26-CAGs-LSL-rtTA-IRES-mKate2 mice generated by blastocyst injection and maintained on doxycycline (dox) chow (625 mg/kg, Harlan Laboratories) 5 days from birth until sacrifice. […] KP^floxRIK cells were derived from PDAC that developed in a p48-Cre; LSL-KrasG12D; p53^flox/+; Rosa26-CAGs-LSL-rtTA-IRES-mKate2 mouse generated by blastocyst injection. KP^R172HRIK cells were derived from tumors that developed in a p48Cre^ER; LSL-KrasG12D; LSL-p53^R172H/+; Rosa26-CAGs-LSL-rtTA-IRES-mKate2 mouse generated by blastocyst injection. […]
Metabolite Profiling. […] Samples were analyzed using an Agilent 7890A GC coupled to Agilent 5975C mass selective detector. […] Peaks representing compounds of interest were extracted and integrated using MassHunter software (Agilent Technologies) and peak area was normalized to the internal standard (d5-2HG) peak area and protein content of duplicate samples as determined by BCA protein assay (Thermo Scientific). Ions used for quantification of metabolite levels are as follows: d5-2HG m/z 354; citrate, m/z 465; αKG, m/z 304; aspartate, m/z 334; fumarate, m/z 245; malate, m/z 335 and succinate, m/z 247. […]

[7] = tested on: Nras^G12D; Mll-Af9 murine AML cells; experiment: aKG:succinate ratio in AML cells by GC/MS; type: cell-based; conditions: FIG. 20F
[8] = target: T1, OGDH (Homo sapiens, UniProt Q02218); experiment: OGDH enzyme inhibition in vitro; type: biochemical
T1 sequence (Q02218 41-1023): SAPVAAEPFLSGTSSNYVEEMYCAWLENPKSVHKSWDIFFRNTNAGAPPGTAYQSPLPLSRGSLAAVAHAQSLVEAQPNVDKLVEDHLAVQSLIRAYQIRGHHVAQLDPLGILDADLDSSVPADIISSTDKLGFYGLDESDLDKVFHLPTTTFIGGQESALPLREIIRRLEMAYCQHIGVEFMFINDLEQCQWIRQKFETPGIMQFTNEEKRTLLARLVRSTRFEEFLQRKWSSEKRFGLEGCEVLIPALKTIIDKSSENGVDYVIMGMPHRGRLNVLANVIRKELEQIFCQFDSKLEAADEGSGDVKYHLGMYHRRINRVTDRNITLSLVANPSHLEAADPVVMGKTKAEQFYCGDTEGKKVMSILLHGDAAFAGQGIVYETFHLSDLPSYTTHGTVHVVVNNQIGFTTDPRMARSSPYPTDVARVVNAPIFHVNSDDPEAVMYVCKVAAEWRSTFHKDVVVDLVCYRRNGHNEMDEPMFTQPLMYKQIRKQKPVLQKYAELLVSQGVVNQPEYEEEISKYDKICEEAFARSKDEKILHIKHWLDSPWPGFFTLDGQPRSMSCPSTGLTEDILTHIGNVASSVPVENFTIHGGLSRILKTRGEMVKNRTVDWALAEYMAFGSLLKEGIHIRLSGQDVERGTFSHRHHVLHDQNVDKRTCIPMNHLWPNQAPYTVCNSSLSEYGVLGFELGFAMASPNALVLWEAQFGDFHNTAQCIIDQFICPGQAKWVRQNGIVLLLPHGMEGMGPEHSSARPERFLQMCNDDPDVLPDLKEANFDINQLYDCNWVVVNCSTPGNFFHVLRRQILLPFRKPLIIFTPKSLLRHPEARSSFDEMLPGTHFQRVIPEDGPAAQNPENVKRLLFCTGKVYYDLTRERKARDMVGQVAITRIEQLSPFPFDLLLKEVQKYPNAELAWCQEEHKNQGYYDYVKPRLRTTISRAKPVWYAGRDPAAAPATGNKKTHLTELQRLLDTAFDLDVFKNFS
Description: It is worth noting that there are ongoing clinical trials in hematologic malignancies including AML for a compound designated CPI-613. This drug is an analog of lipoate, a catalytic co-factor and modulator of several metabolic enzymes, including the TCA enzymes pyruvate dehydrogenase (PDH) and OGDH. However, the compound is thought to elicit its anti-cancer effects through an indirect mechanism and may also target additional lipoate-dependent enzymes involved in amino acid catabolism. […] Instead development of specific inhibitors of OGDH was initiated for the purpose of exploiting a known metabolic phenotype mimicking the wt-p53 tumor suppressive effect. These concepts and compounds will be tested in our models of CK AML.

With `COC(=O)CCC(=O)C(=O)OC` [cell-permeable αKG, dimethyl-α-ketoglutarate] the “cellular 5hmC” value [1] was “induced cellular 5hmC”, the “expression of genes enriched in malignant PDAC cells (GSEA)” value [2] was “concomitant downregulation of genes enriched in malignant PDAC cells” and the “expression of genes of premalignant PanIN lesions (GSEA)” value [2] was “robust increase in expression of genes selectively expressed in cells derived from premalignant PanIN lesions”. The “chromatin accessibility (ATAC-Seq)” value [3] was “global increase in chromatin accessibility” and the “cellular 5hmC” value [4] was “induced cellular 5hmC”.
In the case of `COc1cc([C@@H]2c3cc4c(cc3[C@@H](O[C@@H]3O[C@@H]5CO[C@@H](C)O[C@H]5[C@H](O)[C@H]3O)[C@H]3COC(=O)[C@H]23)OCO4)cc(OC)c1O` [etoposide], the “cell cycle arrest and senescence” value [5] was “triggered cell cycle arrest and senescence” and the αKG/succinate ratio [6] was “neither altered the αKG/succinate ratio”.
`CC(=O)[O-].[Na+]` [acetate, sodium acetate] was tested, and the “induction of pre-malignant associated genes co-regulated by p53 and αKG (qRT-PCR)” value ([2]; 4 mM, 72 h) was “not”.
For `O=C(O)CCCCC(CCSCc1ccccc1)SCc1ccccc1` (centres unmarked) [CPI-613], the “cellular ratio of αKG:succinate” value [7] was “not”, the “specificity for OGDH” value [8] was “lacks specificity for OGDH” and the “concentration at which OGDH is inhibited” value ([8]; in vitro) was greater than 200 µM.

Reference: patent US20220280538A1, “METHODS OF TREATING P53 MUTANT CANCERS USING OGDH INHIBITORS” (MEMORIAL SLOAN KETTERING CANCER CENTER, priority 2019, published 2022)
